Laboratory results reported in patent EP0498830B1, “GLUTAMIC AND ASPARTIC ACID DERIVATIVES WITH ANTIGASTRIN ACTIVITY AND A METHOD FOR THEIR PREPARATION” (ROTTA RESEARCH LABORATORIUM S.P.A., priority 1989, dated 1991).
Like-named read-outs stand apart in the source and are kept apart here.

Tests used:
[1] = target: T1, gastrin receptor sites on the parietal cell membranes of the fundic mucosa of a guinea-pig stomach (Cavia porcellus, UniProt H0VZC5); test: Inhibition of binding of tritiated pentagastrin to isolated guinea-pig gastric glands; set-up: from tissue; host or cells: isolated gastric glands from guinea-pig fundic mucosa (collagenase digestion)
T1 sequence (H0VZC5 1-426): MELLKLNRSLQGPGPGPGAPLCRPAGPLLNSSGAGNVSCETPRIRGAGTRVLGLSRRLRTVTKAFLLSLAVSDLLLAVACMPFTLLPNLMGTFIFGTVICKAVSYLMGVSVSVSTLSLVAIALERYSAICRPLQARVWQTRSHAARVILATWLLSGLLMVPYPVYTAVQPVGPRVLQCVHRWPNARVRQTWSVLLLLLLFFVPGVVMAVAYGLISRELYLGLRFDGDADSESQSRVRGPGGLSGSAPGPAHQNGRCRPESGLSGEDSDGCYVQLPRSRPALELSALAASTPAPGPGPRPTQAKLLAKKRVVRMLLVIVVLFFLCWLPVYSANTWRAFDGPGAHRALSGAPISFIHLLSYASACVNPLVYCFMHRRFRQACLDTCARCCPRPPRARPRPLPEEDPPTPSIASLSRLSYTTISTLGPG
Procedure: The capacity of some of the compounds which are the subject of the invention to inhibit the binding of pentagastrin-[beta-alanyl-3-3H(N)] to the gastrin receptor sites on the parietal cell membranes of the fundic mucosa of a guinea-pig stomach was evaluated by comparison with the displacement of pentagastrin induced by proglumide, which is a reference antigastrin compound, by lorglumide, which is a powerful CCK antagonist mentioned above, and by the compound D5 which is the optical antipode (the L-series enantiomer) of the compound D1.
Male guinea pigs weighing about 400-500g were used. After the guinea pig had been killed, its stomach was removed and placed in oxygenated SPB buffer at 37°C (SPB = saline phosphate buffer: 149.6 mM NaCl, 3 mM K₂HPO₄, 0.64 mM NaH₂PO₄, pH 7.3).
After washing in the buffer, the stomach was placed on a petri dish and the antral part discarded.
The mucosa of the remaining part was removed from the underlying muscular part and was then chopped and transferred to a flask containing a collagenase digestion solution, 0.1% BSA and 0.2% glucose. The solution was incubated at 37°C for 10 minutes under agitation and a stream of 0₂.
During the incubation period, the tissue was passed several times through a series of pipettes with decreasing diameters in order to facilitate its digestion. At the end of the period, the tissue was removed and centrifuged at 1000 rpm. The supernatant liquid resulting from the centrifuging was discarded and the pellet washed several times with a washing buffer containing EPTA to remove the collagenase.
The glands were then isolated from the undigested tissue by conventional techniques, suspended in Hepes buffer for binding and incubated together with a radioactive tracer and the compounds under test for 30 minutes at 25°C.
After the supernatant liquid had been removed by centrifuging, the radioactivity associated with the pellet was determined with a liquid scintillator. The specific binding was determined as the difference between the binding in the absence and in the presence of 10⁻⁶ M pentagastrin.
The results obtained are shown in Table 1 which gives the IC50, that is, the concentration (in moles/litre) of the antagonist which can displace 50% of the pentagastrin tritiate from the receptor.

[2] = test system: gastric acid secretion induced by pentagastrin; test: Antisecretive activity in anaesthetised rats, stimulant pentagastrin; type: in vivo; details: Rattus norvegicus, iv; pentagastrin 30 mcg/kg/h; I.V. bolus; anaesthetised rats; read-out: Antagonistic activity (ED50 mg/kg IV) towards gastric acid secretion induced by pentagastrin
Procedure: The antisecretive activity was determined in rats with the use of male animals weighing about 200g, anaesthetised with urethane. Gastric secretion was stimulated with pentagastrin. K.S. Lai's method (Gut 5, (1964), 327-341) was used, with slight modifications.
After tracheotomy, oesophageal and duodenal cannulae were inserted. A tepid solution (37°C) of 0.25 mM NaOH was perfused through the stomach by means of a peristaltic pump at a constant flow rate of 1 ml/minute. After stabilisation for 20 minutes, the dose of the stimulant, indicated in Table 3, dissolved in a physiological solution, was perfused for 120 minutes at a rate of 0.95 ml/hour. After 60 minutes of perfusion (basic stimulation), the products under test were administered intravenously (I.V.) in boli whilst the perfusion of the stimulant continued for a further 60 minutes. The acid secretion was recorded continuously as a function of time.
The activity of the product was evaluated as the reduction in the secreted acidity after administration of the product as a percentage of the basic acidity measured during the first 60 minutes of collection during which only pentagastrin was present.
The antagonistic compounds tested were administered in different doses so that an ID50 (that is the dose (in mg/Kg I.V.) which can inhibit the effect of the pentagastrin by 50% could be calculated.
The results thus obtained are given in the following table in which the activities of the compounds are expressed as ID50s under the stimulus of pentagastrin at 30 mcg/Kg/h.

[3] = target: T2, central gastrin receptors (Mus musculus, UniProt P56481); test: Inhibition of binding of tritiated pentagastrin to mouse cerebral cortex membranes; set-up: Mouse cortex tissue was homogenised cold in 20 volumes of tris buffer (pH 7.7); from tissue; host or cells: mouse cerebral cortex membranes; species or system mice; details: displacement of pentagastrin tritiate; 40 minutes at 37°C
T2 sequence (P56481 1-453): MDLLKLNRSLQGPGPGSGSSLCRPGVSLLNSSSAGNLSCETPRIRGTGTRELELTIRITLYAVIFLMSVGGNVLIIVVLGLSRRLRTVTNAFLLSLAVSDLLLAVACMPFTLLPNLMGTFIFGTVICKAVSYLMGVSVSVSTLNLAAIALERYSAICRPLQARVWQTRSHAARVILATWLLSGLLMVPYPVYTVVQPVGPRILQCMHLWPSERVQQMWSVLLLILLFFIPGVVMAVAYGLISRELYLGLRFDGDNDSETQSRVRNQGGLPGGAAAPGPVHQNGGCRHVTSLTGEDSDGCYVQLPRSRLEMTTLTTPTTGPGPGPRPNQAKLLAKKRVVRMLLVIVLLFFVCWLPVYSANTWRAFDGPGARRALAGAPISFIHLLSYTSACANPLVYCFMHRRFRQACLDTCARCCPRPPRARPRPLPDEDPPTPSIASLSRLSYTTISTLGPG
Procedure: Cerebral cortex membranes were therefore used and pentagastrin tritiate was again used as the ligand.
Mouse cortex tissue was homogenised cold in 20 volumes of tris buffer (pH 7.7). After washing and centrifuging, the final pellet was resuspended in 20 volumes of binding buffer containing, inter alia, TRIS, BSA and bacitracin. 0.4 ml of the membrane thus obtained were then incubated with a radioactive tracer and with the compounds under test for 40 minutes at 37°C.
After the supernatant liquid had been removed by centrifuging, the radioactivity associated with the pellet was determined, again with a liquid scintillator. The specific binding is the difference between the binding in the absence and in the presence of 10⁻⁶M pentagastrin.
Again, this gives the IC50s of the compounds tested with the meaning as given above.

[4] = test system: guinea-pig gall bladders stimulated in vitro by CCK-8; test: Anti-CCK activity on guinea-pig gall bladder contracted in vitro by CCK-8; details: CCK-8 10 ng/ml; at least three tests per compound
Procedure: In order to check the hypothesis that the molecular conformation of the subject compounds is suitable to give them a specific antagonistic activity towards gastrin and not towards CCK, the anticontracturant activity of some of the compounds of the invention was tested on guinea-pig gall bladders stimulated in vitro by CCK-8.
A longitudinal strip of guinea-pig gall bladder was placed in a bath for isolated organs in the presence of Krebs at a temperature of 32°C, continuously oxygenated by an oxygen-CO₂ mixture (95-5 V/V).
The isometric contractions were detected by means of a force transducer and recorded.
The gall bladder was contracted with the use of a 10ng/ml concentration of CCK-8; the antagonistic activity of the compounds towards the contracturant effect of the CCK was determined with the use of different concentrations and the IC50 value, that is, the concentration in mcg/ml of the compound which is able to antagonise the contracturant effect of the CCK by 50%, thus determined.
The results obtained are set out in the table below which gives the compounds tested and the IC50s which were calculated by the regression method on a set of at least three tests for each compound investigated.

[5] = displacement of 50% of pentagastrin tritiate, 30 minutes at 25°C, read-out: IC50

| Structure (SMILES) | IC50 [1, 5] | ED50 [2] | IC50 [3] | IC50 [1] | IC50 ACTIVITY [4] | times less active than the corresponding compound D1 ([1]; L-series vs D-series enantiomer, gastric glands) |
| --- | --- | --- | --- | --- | --- | --- |
| CCC(C)(CC)CCNC(=O)C(CCC(=O)O)NC(=O)c1cc(Cl)ccc1[N+](=O)[O-] (racemic) [A23] | 66 nM | 40 mg/kg | 230 nM |  |  |  |
| O=C(O)CC[C@@H](NC(=O)c1cccc(Cl)c1)C(=O)NC1CCCCCC1 [D4] | 2300 nM | 64 mg/kg |  |  |  |  |
| CC(C)(C)CCNC(=O)C(CCC(=O)O)NC(=O)c1cc(Cl)cc(Cl)c1 (racemic) [A21] |  | 34 mg/kg | 80 nM | 69 nM |  |  |
| CCC(C)CCNC(=O)C(CCC(=O)O)NC(=O)c1cccc(Cl)c1 (stereo not shown) [A6] | 4500 nM | 55 mg/kg |  |  |  |  |
| O=C(O)CCC(NC(=O)c1cccc(Cl)c1)C(=O)NC1CCCCC1 (racemic) [A7] | 17000 nM | 93 mg/kg |  |  | > 100 µg/mL |  |
| CC(C)CCNC(=O)C(CCC(=O)O)NC(=O)c1cccc(Cl)c1 (racemic) [A2] | 3100 nM | 48 mg/kg |  |  |  |  |
| CCCCCNC(=O)C(CCC(=O)O)NC(=O)c1cccc(Cl)c1 (racemic) [A1] | 2000 nM | 56 mg/kg | 6700 nM |  | > 100 µg/mL |  |
| CCCN(CCC)C(=O)C(CCC(=O)O)NC(=O)c1ccccc1 (stereo not shown) [Proglumide, reference compound] |  | 500 mg/kg | 220000 nM |  |  |  |
| CCCCCCCNC(=O)C(CCC(=O)O)NC(=O)c1cccc(Cl)c1 (racemic) [A8] | 12000 nM | > 100 mg/kg | 39000 nM |  |  |  |
| O=C(O)CC(NC(=O)c1cccc(Cl)c1)C(=O)NC1CCCCCC1 (racemic) [A25] | 7300 nM | 74 mg/kg |  |  |  |  |
| CCCCCNC(=O)C(CCC(=O)O)NC(=O)c1cccc(C)c1 (racemic) [A17] | 4500 nM | 65 mg/kg | 17000 nM |  |  |  |
| CCC(C)(CC)CCNC(=O)[C@@H](CCC(=O)O)NC(=O)c1cccc(Cl)c1 [D3] | 58 nM | 30 mg/kg |  |  |  |  |
| CC(C)(C)CCCNC(=O)C(CCC(=O)O)NC(=O)c1cccc(Cl)c1 (racemic) [A9] | 200 nM | 34 mg/kg | 220 nM |  |  |  |
| CC(C)CCCNC(=O)C(CCC(=O)O)NC(=O)c1cccc(Cl)c1 (racemic) [A4] | 3300 nM | 61 mg/kg |  |  |  |  |
| CCC(CC)(CC)CCNC(=O)C(CCC(=O)O)NC(=O)c1cccc(Cl)c1 (racemic) [A14] | 78 nM | 39 mg/kg | 93 nM |  |  |  |
| CCC(C)(CC)CCNC(=O)C(CC(=O)O)NC(=O)c1cccc(Cl)c1 (racemic) [A24] | 230 nM | 42 mg/kg | 290 nM |  |  |  |
| Cc1cccc(C(=O)NC(CCC(=O)O)C(=O)NC2CCCCC2)c1 (racemic) [A19] | 41000 nM | 98 mg/kg |  |  |  |  |
| CC(C)(C)CCNC(=O)[C@H](CCC(=O)O)NC(=O)c1cccc(Cl)c1 [D5, reference compound] | 520 nM | 89 mg/kg | 660 nM |  |  | about 10 times |
| O=C(O)CC[C@H](NC(=O)c1cccc(Cl)c1)C(=O)NC1CCCCCC1 [D6, reference compound] | 67000 nM |  |  |  |  |  |
| CCC(C)(CCNC(=O)C(CCC(=O)O)NC(=O)c1cccc(Cl)c1)C(C)C (stereo not shown) [A16] | 290 nM | 37 mg/kg |  |  |  |  |
| CCCCCCNC(=O)C(CCC(=O)O)NC(=O)c1cccc(C)c1 (racemic) [A18] | 5800 nM | 58 mg/kg |  |  |  |  |
| O=C(O)CCC(NC(=O)c1cccc(Cl)c1)C(=O)NC1CCCCCC1 (racemic) [A12] | 3800 nM | 58 mg/kg | 6400 nM |  |  |  |
| CCC(C)(C)CCNC(=O)C(CCC(=O)O)NC(=O)c1cccc(Cl)c1 (racemic) [A10] | 230 nM | 37 mg/kg | 180 nM |  |  |  |
| CCC(C)(CC)CCNC(=O)C(CCC(=O)O)NC(=O)c1cc(C)cc(C)c1 (racemic) [A22] | 2900 nM | 41 mg/kg | 2400 nM |  |  |  |
| CCCCCCNC(=O)C(CCC(=O)O)NC(=O)c1cccc(Cl)c1 (racemic) [A3] | 4800 nM | 54 mg/kg | 7500 nM |  |  |  |
| CCC(C)(C)CCNC(=O)C(CCC(=O)O)NC(=O)c1cccc(C)c1 (racemic) [A20] | 680 nM | 44 mg/kg | 830 nM |  | > 100 µg/mL |  |
| CCC(C)(CC)CCNC(=O)C(CC(=O)O)NC(=O)c1cccc(C)c1 (racemic) [A26] | 840 nM | 52 mg/kg |  |  |  |  |
| CCC(CC)CCNC(=O)C(CCC(=O)O)NC(=O)c1cccc(Cl)c1 (racemic) [A11] | 650 nM | 53 mg/kg |  |  |  |  |
| CC(C)(C)CCCNC(=O)[C@@H](CCC(=O)O)NC(=O)c1cccc(Cl)c1 [D2] | 34 nM | 34 mg/kg | 59 nM |  |  |  |
